The target in data set [1] is T1, CpIMPDH (Cryptosporidium parvum, UniProt Q8T6T2).
T1 construct: gene 56k.02; recombinant
T1 sequence (Q8T6T2 1-400): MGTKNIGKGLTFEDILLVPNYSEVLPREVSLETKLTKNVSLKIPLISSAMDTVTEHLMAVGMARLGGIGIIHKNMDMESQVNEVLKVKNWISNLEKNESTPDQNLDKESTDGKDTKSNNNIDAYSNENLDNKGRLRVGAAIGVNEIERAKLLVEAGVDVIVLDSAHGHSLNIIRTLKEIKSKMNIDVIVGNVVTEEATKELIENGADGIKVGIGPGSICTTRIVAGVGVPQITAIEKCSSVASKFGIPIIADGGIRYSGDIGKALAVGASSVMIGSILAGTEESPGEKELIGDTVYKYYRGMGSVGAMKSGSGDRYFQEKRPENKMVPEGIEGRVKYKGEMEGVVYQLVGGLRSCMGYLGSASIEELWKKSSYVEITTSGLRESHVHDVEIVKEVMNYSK
In words: NADH production, A340. Format: biochemical. An excerpt: NADH production, A340 on CpIMPDH

The target of data set [2] is T2, CjIMPDHΔS (Campylobacter jejuni, UniProt Q0P9J4, INS91G/DEL92-195).
T2 construct: gene guaB
T2 sequence (Q0P9J4 1-485 INS91G/DEL92-195): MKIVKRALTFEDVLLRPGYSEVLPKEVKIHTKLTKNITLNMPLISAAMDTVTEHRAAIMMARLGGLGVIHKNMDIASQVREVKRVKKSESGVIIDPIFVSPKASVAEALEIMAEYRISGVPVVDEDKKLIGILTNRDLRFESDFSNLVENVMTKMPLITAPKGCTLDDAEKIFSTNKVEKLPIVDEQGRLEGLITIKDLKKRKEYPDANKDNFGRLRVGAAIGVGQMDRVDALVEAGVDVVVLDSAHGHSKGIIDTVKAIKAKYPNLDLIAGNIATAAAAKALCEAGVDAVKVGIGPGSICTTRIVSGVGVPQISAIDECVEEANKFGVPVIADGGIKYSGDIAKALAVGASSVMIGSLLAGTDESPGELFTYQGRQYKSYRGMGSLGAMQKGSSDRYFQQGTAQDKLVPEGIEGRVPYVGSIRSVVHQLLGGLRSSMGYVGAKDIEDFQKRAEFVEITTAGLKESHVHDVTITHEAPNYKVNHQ
In words: NADH production, A340. Format: biochemical. To be noted: pH 8.0, 1 mM IMP, NAD+ about 2.5 x Km, 10 min preincubation, room temperature. The text has this: NADH production, A340 on CjIMPDHΔS

Data set [3] concerns the target T3, VcIMPDH (Vibrio cholerae, UniProt Q9KTW3).
T3 construct: gene guaB; full-length wild type, N-terminal His6 tag, recombinant E. coli; tetramer
T3 sequence (Q9KTW3 1-489): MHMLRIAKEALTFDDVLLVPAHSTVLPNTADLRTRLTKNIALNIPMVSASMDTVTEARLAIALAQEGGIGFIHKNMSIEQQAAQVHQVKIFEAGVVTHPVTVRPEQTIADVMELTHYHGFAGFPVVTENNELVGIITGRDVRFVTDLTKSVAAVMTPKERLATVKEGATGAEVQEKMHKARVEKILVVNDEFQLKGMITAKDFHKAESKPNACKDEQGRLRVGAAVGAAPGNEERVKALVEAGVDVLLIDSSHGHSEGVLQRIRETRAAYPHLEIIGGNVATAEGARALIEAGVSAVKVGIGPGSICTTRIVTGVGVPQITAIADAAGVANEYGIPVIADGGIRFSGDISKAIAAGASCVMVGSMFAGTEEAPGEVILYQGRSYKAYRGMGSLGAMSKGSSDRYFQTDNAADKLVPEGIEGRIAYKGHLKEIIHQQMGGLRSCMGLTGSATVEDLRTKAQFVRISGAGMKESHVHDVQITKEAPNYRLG
As to the kind of experiment: NADH production, A340. Format: biochemical. To be noted: read-out: IC50 / 1. The text has this: NADH production, A340 on VcIMPDH

Data set [4] has as its target T4, CjIMPDH (Campylobacter jejuni, UniProt Q0P9J4).
T4 construct: gene guaB; full-length wild type, N-terminal His6 tag, pMCSG7, E. coli; tetramer
T4 sequence (Q0P9J4 1-485): T2 sequence (Q0P9J4 1-485 INS91G/DEL92-195)
As to the kind of experiment: NADH production, A340. The data set is classed as biochemical. An excerpt: NADH production, A340 on CjIMPDH

Data set [5] deals with T5, BaIMPDH (Bacillus anthracis, UniProt A0A6L8P2U9).
T5 construct: gene guaB
T5 sequence (A0A6L8P2U9 1-487 limits assumed): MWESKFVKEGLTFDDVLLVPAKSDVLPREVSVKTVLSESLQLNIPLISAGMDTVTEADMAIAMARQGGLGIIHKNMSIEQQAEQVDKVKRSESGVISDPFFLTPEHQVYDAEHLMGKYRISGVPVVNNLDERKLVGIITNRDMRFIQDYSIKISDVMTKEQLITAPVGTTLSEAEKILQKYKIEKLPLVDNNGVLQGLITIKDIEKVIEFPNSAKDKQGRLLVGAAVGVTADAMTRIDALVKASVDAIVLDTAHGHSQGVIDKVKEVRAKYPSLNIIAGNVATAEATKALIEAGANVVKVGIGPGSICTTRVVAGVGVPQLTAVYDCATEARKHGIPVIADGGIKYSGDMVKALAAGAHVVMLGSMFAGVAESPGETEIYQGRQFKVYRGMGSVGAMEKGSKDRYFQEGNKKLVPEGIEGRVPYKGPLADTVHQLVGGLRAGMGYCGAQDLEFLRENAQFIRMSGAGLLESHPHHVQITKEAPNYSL
The data set is classed as biochemical.

In data set [6] the target is T4, CjIMPDH. In words: steady-state kinetics, A340. As to conditions: substrate inhibition by NAD+; pH 8.0, 25 °C. The data set is classed as biochemical. The text has this: steady-state kinetics, A340 on CjIMPDH
Data set [7] deals with NC(=O)c1ccc[n+]([C@@H]2O[C@H](COP(=O)(O)OP(=O)(O)OC[C@H]3O[C@@H](n4cnc5c(N)ncnc54)[C@H](O)[C@@H]3O)[C@@H](O)[C@H]2O)c1. In words: purified protein. To be noted: pH 8.0; 25.0 °C.

Data on 7 molecules can be found in publication PMC4342496 (The Journal of Biological Chemistry, 2015).

Read-outs that look alike come from different tables or passages of the source. A value given as a limit tells only on which side of the number the result lay.

Take `Cn1nc(CC(=O)Nc2ccc3oc4c(c3c2)CCCC4)c2ccccc2c1=O` [compound 3, 3,4-dihydro-3-methyl-4-oxo-N-(6,7,8,9-tetrahydro2-dibenzofuranyl)-1-phthalazineacetamide]: the IC50 is 24 ± 6 nM in data set [1] (read-out: IC50 / 3), 200 ± 20 nM in data set [2] (read-out: IC50 / 3), more than 5 µM in data set [3] and 169 ± 20 nM in data set [4] (read-out: IC50 / 3).
Take `C=C(C)c1cccc(C(C)(C)NC(=O)Nc2ccc(Br)cc2)c1` [compound 4]: the IC50 in data set [1] (read-out: IC50 / 4) was 11 ± 5 nM; in data set [2] (read-out: IC50 / 4), 67 ± 13 nM; in data set [3] it was more than 5 µM; in data set [4] (read-out: IC50 / 4), 36 ± 8 nM.
As for `NC(=O)c1ccc[n+]([C@@H]2O[C@H](COP(=O)(O)OP(=O)(O)OC[C@H]3O[C@@H](n4cnc5c(N)ncnc54)[C@H](O)[C@@H]3O)[C@@H](O)[C@H]2O)c1` [NAD^+], the “NAD^+ Kii” value in data set [5] is given as 3.9 ± 0.8 mM; in data set [6], 20 ± 2 mM.
With BaIMPDH (Bacillus anthracis), the Km in data set [7] was determined as 550 ± 100 µM.
Take `C[C@H](Oc1cccc2ccccc12)C(=O)Nc1ccc2oc(-c3ccncc3)nc2c1` [compound 7, 2-(1-naphthalenyloxy)-N-[2-(4-pyridinyl)-5-benzoxazolyl)-(2S)-propanamide]: the IC50 in data set [2] (read-out: IC50 / 7) was 19 ± 2 nM; in data set [3], more than 5 µM; in data set [4] (read-out: IC50 / 7) it was 13 ± 2 nM.
In the case of `C[C@@H](Oc1cc[n+]([O-])c2ccccc12)c1cn(-c2ccc(Cl)cc2)nn1` [compound 1, 4-[(1R)-[1-(4-chlorophenyl)-1H-1,2,3-triazol-4yl]ethoxy]quinoline-1-oxide], the results for the IC50 in data set [1] (read-out: IC50 / 1), in data set [2] (read-out: IC50 / 1) and in data set [4] (read-out: IC50 / 1) were 9 ± 2 nM, 107 ± 8 nM and 140 ± 30 nM, respectively.
With `C/C(=N\O)c1cccc(C(C)(C)NC(=O)Nc2ccc(Br)cc2)c1` [compound 6], the IC50 in data set [1] (read-out: IC50 / 6) is 8 ± 2 nM; in data set [2] (read-out: IC50 / 6), 46 ± 4 nM; in data set [3], more than 5 µM; in data set [4] (read-out: IC50 / 6), 29 ± 4 nM.
